Peptide text beside a SMILES is read from it.
Assays:
U937 cells = test: Transwell migration towards SDF-1; format: cell-based, human
Procedure: (§1) Various cells (1×10^6/mL), untreated or pretreated with peptides for 3 hrs at 96-well flat bottom plates at 37° C. were washed, 2×10^5 cells/100 μL were added to the upper chambers of Costar 24-well transwell plates with 5 μm pore filters (Corning Inc., Corning, N.Y.) and allowed to migrate for 2-4 hrs at 37° C. (95% humidity, 5% CO2) spontaneously or towards 50 ng/mL SDF-1 (rhSDF-1, Peprotech, Rocky Hill, N.J.) in medium supplemented with 10% FCS. In the chemotaxis assay, untreated cells were added to the upper chambers and the peptides were added to the lower chambers in serum free medium. Migrated cells were collected from the lower chambers and counted using a flow cytometer. Data are presented as a percentage of migrated cells.
To address this issue, the cells were incubated with the peptides for 3 hrs, washed and then allowed to migrate towards SDF-1.

CXCR4 = target: T1, CXCR4 (Homo sapiens, UniProt P61073); test: CXCR4 membrane expression (flow cytometry); format: cell-based; details: human cord blood CD34+ cells, 1 or 10 μM, 3 hrs
T1 construct: endogenous in cells; host or cells: human cord blood CD34+ cells, human pre-B-ALL G2 cells, U937 and HL-60 cells
T1 sequence (P61073 whole entry): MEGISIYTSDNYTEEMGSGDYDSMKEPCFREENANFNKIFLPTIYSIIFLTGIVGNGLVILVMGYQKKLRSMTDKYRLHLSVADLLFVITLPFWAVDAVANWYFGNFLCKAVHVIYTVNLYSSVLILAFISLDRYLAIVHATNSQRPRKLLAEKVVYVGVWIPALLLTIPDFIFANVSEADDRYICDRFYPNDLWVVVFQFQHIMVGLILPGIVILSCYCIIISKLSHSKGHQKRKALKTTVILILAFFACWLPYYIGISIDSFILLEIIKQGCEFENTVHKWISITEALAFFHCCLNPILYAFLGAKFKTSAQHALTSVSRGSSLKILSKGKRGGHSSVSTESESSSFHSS
Procedure: (§2) FIGS. 10A-10C. TL-1 and cTL1 down-regulate CXCR4 expression on human cord blood CD34^+ and G2 cells. Human cord blood CD34^+ and G2 cells were incubated with 1 or 10 μM TL-1 or cyclic TL-1 for 3 hrs or left untreated (UT), washed, stained with CXCR4 and CCR5 Ab and analyzed by flow cytometry. Representative histograms from 3 separate experiments are shown. FIG. 10A—effect of TL-1 on CXCR4 expression. FIG. 10B—effect of cTL-1 on CXCR4 expression. FIG. 10C—effects of TL-1 and cTL-1 on CCR5 expression.
(§3) Various cell types (1×10^6/mL) were pretreated with the peptides for 3 hrs as described above, washed and then stained in staining buffer (PBS supplemented with 0.5% FCS and 0.01% sodium azide) with mouse anti-human CXCR4-PE, CCR5-FITC (R&D Systems, Minneapolis, Minn.) or CD45-FITC (ImmunoQuality Products, Groningen, The Netherlands) mAbs for 30 min at 4° C. and analyzed by flow cytometry as described (Kalinkovich, A., et al., 2006). Appropriate IgG were used as the isotype controls.
(§4) Recently, it has been shown that HBD3 could induce internalization of CXCR4 but not of CCR5 in the CEM T cells expressing both CXCR4 and CCR5 (Feng, Z. et al., 2006) implying CXCR4 specificity in HBD3 action.

[1] = tested on: G2 cells and mouse BM MNC; test: Chemotaxis assay (untreated cells migrate towards peptide in bottom chamber); format: cell-based; details: 1 and 10 μM peptide in bottom chamber, 4 hrs
Procedure: FIGS. 9A-9B. AK-1 increases SDF-1-induced migration and chemotaxis of G2 and mouse bone marrow mononuclear cells (BM MNC). (A) G2 cells and mouse BM MNC were preincubated with 1 and 10 μM AK-1 for 3 hrs in serum free medium, washed and allowed to migrate towards SDF-1. Migrated cells were collected and calculated by flow cytometry. Percentage of migrated cells is presented as compared to untreated control taken as 100%. (B) Untreated G2 cells and mouse BM MNC were put to the upper chambers of the transwell plates and allowed to migrate towards 1 and 10 μM AK-1 present the bottom chambers of the transwell plates for 4 hrs. Percentage of migrated cells is presented as compared to untreated (UT) control taken as 100%. Data shown are the mean±SD of 2 separate experiments. *P<0.05 compared to control.
as §1, with “In the chemotaxis assay, untreated cells were added to the upper chambers and the peptides were added to the lower chambers in serum free medium.” left out, “Data are presented as a percentage of migrated cells.” left out

CCR5 = CCR5 membrane expression (flow cytometry); format: cell-based, human; details: tested cells, 3 hrs preincubation
Procedure: as §2, §3, §4

MS-5 cells = test: SDF-1, bFGF and HGF secretion by stromal cells (ELISA of supernatants); format: cell-based, mouse; details: 10 μM, compared with untreated cells
Procedure: (§5) FIGS. 7A-7F. Effect of TL-1, AK-1 and cyclic TL-1 on SDF-1, bFGF and HGF secretion by different stromal cell lines. MS-5, MBA-15 and MG-63 cells were co-cultured with 10 μM TL-1, AK-1 or cyclic TL-1 in the serum free medium for 6 hrs, or without added peptide (UT). Levels of SDF-1 (A-C), bFGF (D) and HGF (E, F) were detected in the collected supernatants by ELISA. Data shown are the mean±SD of 2 separate experiments. *P<0.05 compared to control.
(§6) SDF-1 levels in tested samples were determined by ELISA as described (Kalinkovich, A., et al., 2006) where the K15C monoclonal antibodies (mAb, INRA, Paris, France) recognizing the first three amino acids of SDF-1 were utilized as a capture Ab (10 μg/mL) in order to measure levels of intact, non-cleaved SDF-1. Levels of basic FGF (bFGF) and HGF in tested samples were determined by using corresponding capture mAbs and polyclonal biotynilated Abs (R&D Systems) as recommended by the manufacturer. In order to examine SDF-1, bFGF and HGF levels in cell supernatants, MS-5, MBA-15 and MG-63 cells were seeded in 24-well Costar wells and cultivated in RPMI 1640 or αMEM Eagle medium, respectively, with 10% FCS. When the cells reached confluence, the medium was changed to serum free medium and cells were cultivated for additional 6 hrs in the presence of various concentrations of the peptides. Medium samples were collected and centrifuged 10 min at 6000×g at 4° C. to remove cell debris. Supernatants were collected and kept at −70° C. until tested.
(§7) Because BM stromal cells, such as endosteal bone lining osteoblasts and endothelial cells are the main source of human and murine SDF-1, the capability of the peptides to affect SDF-1 secretion by mouse stromal MS-5 and MBA-15 cells, and human osteoblast MG-63 cells was examined.
(§8) In order to examine the capability of the peptides to induce secretion of other proteins, the levels of Hepatocyte growth factor (HGF) and Basic fibroblast growth factor (bFGF) were detected in the same supernatants.

MBA-15 cells = test: as above; format: cell-based, mouse; details: 10 μM
Procedure: as §5, §6, §7, §8

MG-63 cells = test: as above; format: cell-based, human; details: 10 μM, compared with untreated cells
Procedure: as §5
as §6, with “When the cells reached confluence, the medium was changed to serum free medium and cells were cultivated for additional 6 hrs in the presence of various concentrations of the peptides. Medium samples were collected and centrifuged 10 min at 6000×g at 4° C. to remove cell debris. Supernatants were collected and kept at −70° C. until tested.” left out
as §8

CD45 = CD45 membrane expression (flow cytometry); format: cell-based, human; details: tested cells, 3 hrs preincubation
Procedure: as §3, §4

Compound: N=C(N)NCCC[C@@H]1NC(=O)CNC(=O)[C@H](CCCNC(=N)N)NC(=O)[C@H](CCCCN)NC(=O)[C@H](CCCCN)NC(=O)[C@H](CCCNC(=N)N)NC(=O)[C@H](CCCNC(=N)N)NC(=O)[C@H](CS)NC(=O)[C@H](CS)NC(=O)[C@H](CCCCN)NC1=O [cyclic TL-1, 1,10-cyclo[RGRKCCRRKK]] (cyclo(CCRRKKRGRK))
- SDF-1-induced migration (U937 cells; 1 μM): ineffective
- inhibition of SDF-1-induced migration (U937 cells; 10 μM): 2 fold
- CXCR4 expression (CXCR4): decreased CXCR4 expression
- chemotaxis of untreated cells towards the peptide [1]: ineffective
- membrane expression of CCR5 (CCR5): either unaffected or slightly increased
- levels of SDF-1 in supernatants (MS-5 cells): increased the levels of SDF-1 secretion by MS-5 and MBA-15 cells but much less as compared with TL-1 and AK-1
- HGF secretion into supernatants (MBA-15 cells): induced elevation
- levels of SDF-1 in supernatants (MBA-15 cells; compared with untreated cells): increased the levels of SDF-1 secretion by MS-5 and MBA-15 cells but much less as compared with TL-1 and AK-1
- levels of SDF-1 in supernatants (MG-63 cells): ineffective
- membrane expression of CD45 (CD45): either unaffected or slightly increased
